Measured values from patent US8461328B2, “Tricyclic heterocyclic compounds, compositions and methods of use thereof” (Genentech, Inc., priority 2010, dated 2013).

What was measured:
Type in all cases: biochemical
JAK1 = target: T1, JAK1 (Homo sapiens, UniProt P23458); assay: JAK1 inhibition (Table 4); conditions: read-out: JAK1 Ki
T1 construct: made in house; host or cells: SF9 insect cells (baculovirus)

JAK2 = target: T2, JAK2 (Homo sapiens, UniProt O60674); assay: JAK2 inhibition (Table 4); conditions: read-out: JAK2 Ki
T2 construct: made in house; host or cells: SF9 insect cells (baculovirus)

JAK3 = target: T3, JAK3 (Homo sapiens, UniProt P52333); assay: JAK3 inhibition (Table 4); conditions: read-out: JAK3 Ki
T3 construct: made in house; host or cells: SF9 insect cells (baculovirus)

TYK2 = target: T4, TYK2 (Homo sapiens, UniProt P29597); assay: TYK2 inhibition (Table 4)
T4 construct: made in house; host or cells: SF9 insect cells (baculovirus)
T4 sequence (P29597 873-1187): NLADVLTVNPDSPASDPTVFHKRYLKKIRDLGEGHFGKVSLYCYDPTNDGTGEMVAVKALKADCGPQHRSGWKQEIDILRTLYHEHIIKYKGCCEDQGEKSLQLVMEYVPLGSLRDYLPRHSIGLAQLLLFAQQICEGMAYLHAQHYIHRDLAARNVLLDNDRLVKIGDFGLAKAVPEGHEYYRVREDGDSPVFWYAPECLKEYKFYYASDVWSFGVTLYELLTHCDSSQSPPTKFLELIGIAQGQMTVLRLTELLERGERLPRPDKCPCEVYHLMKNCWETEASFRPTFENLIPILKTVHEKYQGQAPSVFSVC

T3 sequence (P52333 783-1124): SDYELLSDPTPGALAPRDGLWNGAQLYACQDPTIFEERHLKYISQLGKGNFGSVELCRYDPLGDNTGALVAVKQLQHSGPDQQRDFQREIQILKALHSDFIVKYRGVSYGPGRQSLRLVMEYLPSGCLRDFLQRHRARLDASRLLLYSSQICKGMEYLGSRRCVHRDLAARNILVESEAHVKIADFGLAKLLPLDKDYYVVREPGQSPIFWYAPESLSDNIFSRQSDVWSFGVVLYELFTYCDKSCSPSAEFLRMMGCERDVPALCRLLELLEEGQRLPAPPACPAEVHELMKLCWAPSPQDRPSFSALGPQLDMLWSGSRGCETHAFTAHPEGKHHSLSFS
T1 sequence (P23458 852-1154): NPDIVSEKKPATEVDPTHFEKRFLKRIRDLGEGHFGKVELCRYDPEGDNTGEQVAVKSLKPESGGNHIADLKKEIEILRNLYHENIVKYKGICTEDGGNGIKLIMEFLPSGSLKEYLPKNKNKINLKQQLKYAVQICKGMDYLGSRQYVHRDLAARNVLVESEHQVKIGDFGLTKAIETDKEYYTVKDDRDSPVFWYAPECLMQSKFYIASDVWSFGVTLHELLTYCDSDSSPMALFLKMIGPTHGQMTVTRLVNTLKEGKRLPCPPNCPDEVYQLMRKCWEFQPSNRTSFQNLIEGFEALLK
T2 sequence (O60674 812-1132): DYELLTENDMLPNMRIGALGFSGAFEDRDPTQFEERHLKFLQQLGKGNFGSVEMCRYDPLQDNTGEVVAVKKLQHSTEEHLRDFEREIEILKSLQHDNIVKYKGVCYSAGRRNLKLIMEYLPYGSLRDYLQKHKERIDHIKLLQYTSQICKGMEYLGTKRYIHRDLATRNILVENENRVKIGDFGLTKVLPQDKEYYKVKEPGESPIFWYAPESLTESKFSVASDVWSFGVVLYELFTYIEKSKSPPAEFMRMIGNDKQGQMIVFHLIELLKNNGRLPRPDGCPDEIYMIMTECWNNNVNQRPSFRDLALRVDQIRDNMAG

Compound	Ki (JAK1) [nM]	Ki (JAK2) [nM]	Ki (JAK3) [nM]	Ki (TYK2) [nM]
Cc1cc(CN2CCC(n3c([C@@H](C)O)nc4cnc5[nH]ccc5c43)CC2)no1 [Example 899, (R)-1-{1-[1-(5-Methyl-isoxazol-3-ylmethyl)-piperidin-4-yl]-1,6-dihydro-1,3,5,6-tetraaza-as-indacen-2-yl}-ethanol]	3.32	32.1	6.73	140
CC(C)NC(=O)[C@H]1CC[C@H](n2nnc3cnc4[nH]ccc4c32)CC1 [Example 165, Trans 4-(6H-1,2,3,5,6-Pentaaza-as-indacen-1-yl)-cyclohexanecarboxylic acid isopropylamide]	48.9	177	802	550
CS(=O)(=O)Nc1ccc(N2CCC(n3cnc4cnc5[nH]ccc5c43)CC2)nc1 [Example 211, N-[4-(6H-1,2,3,5,6-Tetraaza-as-indacen-1-yl)-3,4,5,6-tetrahydro-2H-[1,2]bipyridinyl-5′-yl]-methanesulfonamide]	7	22.2	133	61.4
Cc1cnn(CCc2nc3cnc4[nH]ccc4c3n2C2CCN(CCC#N)CC2)c1 [Example 413, 3-(4-{2-[2-(4-Methyl-pyrazol-1-yl)-ethyl]-6H-1,3,5,6-tetraaza-as-indacen-1-yl}-piperidin-1-yl)-propionitrile]	21.1	59.8	224	181
O=C1OC(CO)CN1[C@H]1CC[C@H](n2cnc3cnc4[nH]ccc4c32)CC1 (stereo partly drawn) [Example 602, Trans 5-hydroxymethyl-3-[4-(6H-1,2,3,5,6-tetraaza-as-indacen-1-yl)-cyclohexyl]-oxazolidin-2-one]	1.67	2.41	56.7	12.7
OC1CCCC(n2nnc3cnc4[nH]ccc4c32)C1 (single isomer, unassigned) [Example 554, 3-(6H-1,2,3,5,6-Pentaaza-as-indacen-1-yl)-cyclohexanol]	13.3	31.6	77.3	60.6
[3-(6H-1,3,5,6-Tetraaza-as-indacen-1-yl)-cyclopentyl]-carbamic acid 2,2,2-trifluoro-ethyl ester [Example 733]	0.77	4.83	5.88	37.8
C[C@@H](O)c1nc2cnc3[nH]ccc3c2n1C1CCN(Cc2nccn2C)CC1 [Example 826, (R)-1-{1-[1-(1-Methyl-1H-imidazol-2-ylmethyl)-piperidin-4-yl]-1,6-dihydro-1,3,5,6-tetraaza-as-indacen-2-yl}-ethanol]	47	419	209	1160
N#Cc1ccc(S(=O)(=O)N2CCC(n3cnc4cnc5[nH]ccc5c43)CC2)cc1 [Example 56, 4-[4-(6H-1,3,5,6-Tetraaza-as-indacen-1-yl)-piperidine-1-sulfonyl]benzonitrile]	3.84	9.97	337	64.7
c1cc2c(ncc3ncn([C@@H]4C[C@H]5CC[C@@H](C4)N5)c32)[nH]1 [Example 93, (1S,3S,5R)-1-(8-aza-bicyclo[3.2.1]oct-3-yl)-1,6-dihydro-1,3,5,6-tetraaza-as-indacene]	29.6	102	1000	323
CC(O)c1nc2cnc3[nH]ccc3c2n1C1CCN(CC(=O)N2CCCCC2)CC1 (racemic) [Example 529, 2-{4-[2-(1-Hydroxy-ethyl)-6H-1,3,5,6-tetraaza-as-indacen-1-yl]-piperidin-1-yl}-1-piperidin-1-yl-ethanone]	19.6	284	561	2170
CC(C)(C)OC(=O)N1CCC[C@@H]1CN[C@H]1CC[C@H](n2cnc3cnc4[nH]ccc4c32)CC1 [Example 556, trans (R)-2-{[4-(6H-1,3,5,6-Tetraaza-as-indacen-1-yl)-cyclohexylamino]-methyl}-pyrrolidine-1-carboxylic acid tert-butyl ester]	60.4	190	894	1460
O=S(=O)(C1CCCC1)N1CCC(n2cnc3cnc4[nH]ccc4c32)CC1 [Example 443, 1-(1-Cyclopentanesulfonyl-piperidin-4-yl)-1,6-dihydro-1,3,5,6-tetraaza-as-indacene]	8.11	13.9	419	47.2
O=C(Cc1nc2cnc3[nH]ccc3c2n1C1CCCOC1)N1CCN(CCO)CC1 (racemic) [Example 976, 1-[4-(2-Hydroxy-ethyl)-piperazin-1-yl]-2-[1-(tetrahydro-pyran-3-yl)-1,6-dihydro-1,3,5,6-tetraaza-as-indacen-2-yl]-ethanone]	32.1	405	208	299
N#Cc1ccccc1CN1CCC[C@@H](n2cnc3cnc4[nH]ccc4c32)C1 [Example 41, 2-[(R)-3-(6H-1,3,5,6-Tetraaza-as-indacen-1-yl)-piperidin-1-ylmethyl]benzonitrile]	34.4	48.9	153	159
C[C@@H](O)c1nc2cnc3[nH]ccc3c2n1C1CCN(CC(F)F)CC1 [Example 916, (R)-1-{1-[1-(2,2-Difluoro-ethyl)-piperidin-4-yl]-1,6-dihydro-1,3,5,6-tetraaza-as-indacen-2-yl}-ethanol]	6.73	52.8	63.5	78.4
CNC(=O)OC1CCC(n2cnc3cnc4[nH]ccc4c32)CC1 (stereo not shown) [Example 769, Methyl-carbamic acid 4-(6H-1,3,5,6-tetraaza-as-indacen-1-yl)-cyclohexyl ester]	9.6	16.6	104	62.5
O=C(Cc1nc2cnc3[nH]ccc3c2n1C1CCCOC1)NC1CCCC1 (racemic) [Example 974, N-Cyclopentyl-2-[1-(tetrahydro-pyran-3-yl)-1,6-dihydro-1,3,5,6-tetraaza-as-indacen-2-yl]-acetamide]	25.6	110	74.6	194
N#CCCN1CCC(n2c(CC(=O)N3CC(F)(F)C3)nc3cnc4[nH]ccc4c32)CC1 [Example 274, 3-(4-{2-[2-(3,3-Difluoro-azetidin-1-yl)-2-oxo-ethyl]-6H-1,3,5,6-tetraaza-as-indacen-1-yl]-piperidin-1-yl}-propionitrile]	34.3	88.8	39.3	259
Cc1nc2cnc3[nH]ccc3c2n1[C@@H]1CCCC(=O)C1 [Example 885, (R)-3-(2-Methyl-6H-1,3,5,6-tetraaza-as-indacen-1-yl)-cyclohexanone]	6.16	23.8	47.8	33
O=C1CCCN1c1ccc(S(=O)(=O)N2CCC(n3cnc4cnc5[nH]ccc5c43)CC2)cc1 [Example 445, 1-{4-[4-(6H-1,3,5,6-Tetraaza-as-indacen-1-yl)-piperidine-1-sulfonyl]-phenyl}-pyrrolidin-2-one]	11.9	39.2	84	96.9
CC(C)N[C@H]1CC[C@H](n2cnc3cnc4[nH]ccc4c32)CC1 [Example 214, Isopropyl-[4-(6H-1,2,3,5,6-tetraaza-as-indacen-1-yl)-cyclohexyl]-amine]	5.64	43.9	303	82.5
